Measurements taken from publication PMC4627230, “Identification of TAX2 peptide as a new unpredicted anti-cancer agent” (Oncotarget, 2015).

How the values were obtained:
[1] = tested on: lung metastasis of invasive B16F10 melanoma cells; experiment: Experimental lung metastasis; assay type: in vivo; details: data not shown
[2] = tested on: HUVECs; experiment: Boyden chamber / Transwell migration assay; assay type: cell-based, human
Description: Figure 2 TAX2 peptide impairs endothelial cell migration and inhibits angiogenesis in vitro and ex vivo A. HUVECs were treated with TAX2 (100 μM) or scrambled peptide (Ctrl, 100 μM). CD47 was immunoprecipitated from total protein lysates using anti-CD47 (clone B6H12) and non-specific IgGs were used as a negative control. Immunocomplexes were then submitted to SDS-PAGE and immunoblotted (IB) using specific TSP-1 and CD47 antibodies. Histogram represents the quantification of co-immunoprecipitated TSP-1 relative to immunoprecipitated CD47. Results are expressed as percentage compared to control (n = 3 separate experiments, t test). B. HUVECs (1 × 10^5 per well) were grown at confluence and then cell proliferation was inhibited by incubating with 10 μg/mL mitomycin C for 2 h. Migration assays were performed for 9 h with or without TAX2 peptide (100 μM), as described in Materials and Methods. Photographs (100×) were taken every 3 h. Graph represents the quantification of the wounded area. […] Hoechst-stained migrating cells attached on outside surface of the top chamber were photographed (20× objective) and counted. Results are expressed as percentage of migrated cells as compared to control. […] After 8 h incubation, HUVEC tube-like formation was observed on an inverted microscope (40×) and quantification of network total length was done using ImageJ software. […] Data are expressed as the mean ± SE from at least 3 independent experiments, each performed in triplicate. […] The transcriptional level of TSP-1 was assessed by RT-PCR and normalized to β-actin. […] After 6 days incubation in the presence of 100 μM TAX2 or control peptide (Ctrl), images were taken with an inverted microscope (40×) and microvessel area was quantified using ImageJ software. […]
Figure 3 Anti-angiogenic properties of TAX2 are mediated by TSP-1 binding to CD36 A. Expression of CD36 in HUVECs was assessed by immunoblotting (left panel) and immunofluorescence staining (right panel, red). […] The presence of TSP-1 in immunocomplexes was quantified by densitometric analysis relative to immunoprecipitated CD36. […]

[3] = tested on: HUVEC; experiment: HUVEC viability; assay type: cell-based, human

CEVSQLLKGDAC (disulfide) [TAX2, CD47-derived cyclic disulfide dodecapeptide …]
lung metastasis formation [1]: did not increase metastasis formation
inhibition of endothelial cell migration (Boyden chamber) ([2]; HUVECs, 100 μM, 12 h, EGM-2, mean of 5 in triplicate): 50%
prevention of endothelial cell migration in presence of CD36 blocking antibody ([2]; HUVECs, 100 μM, 12 h, anti-CD36 10 μg/mL, n = 3): wholly reversed
concentration of optimal inhibition of endothelial cell migration ([2]; dose-response assay, data not shown, migration format not specified): 100 µM
cytotoxic effect on HUVECs [3]: cannot be attributed to any cytotoxic effect
HUVEC viability ([3]; percent compared to control treatment, t test): not significant
